In patent US5604095A, “Unsymmetrically linked bisnaphthalimides as antitumor agents” (Cancer Therapy & Research Center, priority 1994, dated 1997):
pIC50: −log10 of the molar value. Read-outs that look alike come from different tables or passages of the source.

How the values were obtained:
human cancers = details: literature; cited from earlier work
[1] = cited from earlier work
topoisomerase II = details: Hsiang et al., 1989; cited from earlier work
B16 melanoma = test: In vivo tumor inhibiting activity vs. B16 melanoma in B6D2F1 mice
Description: B16 Melanoma: B6D2F1 mice received i.p. inocula of B16 murine melanoma brei prepared from B16 tumors growing subcutaneously in mice (day 0). On day 1, rumored mice were treated with drugs or vehicle control; the route of drug administration and schedule were selected as appropriate for the study in question. If dosing information for agents was not available, the maximum tolerated dose (MTD) was determined in initial dose finding experiments in non-rumored mice. In a typical experiment, drugs were given at their MTD and 1/2 MTD doses i.p. on a daily×5 schedule.
The mean survival times of all groups were calculated, and results were expressed as mean survival of treated mice/mean survival of control mice (T/C)×100%. A T/C value of 150 means that the mice in the treated group lived 50% longer than those of the control group; this is sometimes referred to as the increase in life space, or ILS value.
Mice that survived for 60 days were considered long term survivors, or cures, in the B16 model. The universally accepted cut-off for activity in this model, which has been used for years by the National Cancer Institute, is T/C=125. Conventional use of B16 over the years has set the following levels of activity: T/C<125, no activity; T/C=125-150, weak activity; T/C=150-200, modest activity; T/C=200-300, high activity; T/C>300, with long term survivors, excellent, curative activity (Goldin et al., 1981).
Statistics were performed on the data using primarily the log rank p-value test.

[2] = test system: MCF-7 human breast carcinoma cell line; test: Growth inhibition (MTT), MCF-7 human breast carcinoma cell line; assay type: cell-based; details: 6 days incubation
Description: (§1) P388 murine leukemic cell line was obtained from the DCT Tumor Repository (National Cancer Institute, Frederick Cancer Research and Development, Frederick Md. 21702). HT29 Human Colon Carcinoma cell line was obtained from the American Type Culture Collection (12301 Parklawn Drive, Rockville, Md. 20852). B16 Melanoma cell line was obtained from DuPont Merck Pharmaceutical Company (Glenolden, Pa. 19036). MCF-7 Human Breast Carcinoma cell line was a gift from Dr. K. Osborne (Department of Medicine, The University of Texas Health Science Center at San Antonio, San Antonio, Tex. 78284). All cell lines were incubated at 37° C. in a humidified atmosphere of 5% CO2 -95% air. Murine B16 melanoma cell line was grown in RPMI 1640 medium supplemented with 10% heat-inactivated fetal bovine serum, 2 mM L-glutamine, 50 units/ml penicillin, 50 μg/ml streptomycin, 25 μg/ml gentamycin, 0.75% sodium bicarbonate, 10 mM HEPES buffer (pH 7.4), and 0.06 mg/ml AntiPPLO. Murine P388 leukemic and the human HT-29 colon adenocarcinoma cell lines were maintained in RPMI 1640 medium supplemented with 10% heat-inactivated fetal bovine serum. MCF-7M human breast adenocarcinoma was maintained in IMEM medium supplemented with 5% non heat-inactivated fetal bovine serum and 1 nM insulin.
(§2) Exponentially growing cells (1-2×10^3 cells, unless specified otherwise) in 0.1 ml medium were seeded on day 0 in a 96-well microtiter plate. On day 1, 0.1 ml aliquots of medium containing graded concentrations of test compounds were added in duplicate to the cell plates. After incubation at 37° C. in a humidified incubator for 3 days (P388, B16) or 6 days (HT-29, MCF-7M), the plates were centrifuged briefly and 100 μl of the growth medium was removed. Cell cultures were incubated with 50 μl of 3-(4,5-dimethylthiazol-2-yl)-2,5-diphenyl-tetrazolium bromide [MTT, 1 mg/ml in Dulbecco's phosphate buffered saline (PBS)] for 4 hr at 37° C. The resulting purple formazan precipitate was solubilized with 200 μl of 0.04N HCl in isopropyl alcohol. Absorbance was monitored in a BioRad Model 3550 Microplate Reader at a test wavelength of 570 nm and a reference wavelength of 630 nm. The absorbance was transferred to a PC 486 computer. The IC50 values were determined by a computer program (EZ-ED50) that fit all of the data to the following four-parameterlogistic equation:
(§3) Y=((Am -Ao)/(1+(X/IC50)^n))+Ao
(§4) where Am is the absorbance of control cells, Ao is the absorbance of cells in the presence of highest agent concentration, Y is the observed absorbance, X is the agent concentration, IC50 is the concentration of agent that inhibits the cell growth by 50% of control cells (based on the absorbance) and n is the slope of the curve.

B16 melanoma cell line = test: Growth inhibition (MTT), B16 melanoma cell line; assay type: cell-based, murine; details: for pIC50: B16, 3 days incubation, MTT
Description: as §1, §2, §3, §4

[3] = test system: P388 murine leukemic cell line; test: Growth inhibition (MTT), P388 murine leukemic cell line; assay type: cell-based; details: Mus musculus, 72 h, 3 days incubation
Description: P388 murine leukemic cell line was obtained from the DCT Tumor Repository (National Cancer Institute, Frederick Cancer Research and Development, Frederick Md. 21702). HT29 Human Colon Carcinoma cell line was obtained from the American Type Culture Collection (12301 Parklawn Drive, Rockville, Md. 20852). B16 Melanoma cell line was obtained from DuPont Merck Pharmaceutical Company (Glenolden, Pa. 19036). MCF-7 Human Breast Carcinoma cell line was a gift from Dr. K. Osborne (Department of Medicine, The University of Texas Health Science Center at San Antonio, San Antonio, Tex. 78284). All cell lines were incubated at 37° C. in a humidified atmosphere of 5% CO2 -95% air. […]
Exponentially growing cells (1-2×10^3 cells, unless specified otherwise) in 0.1 ml medium were seeded on day 0 in a 96-well microtiter plate. […] Absorbance was monitored in a BioRad Model 3550 Microplate Reader at a test wavelength of 570 nm and a reference wavelength of 630 nm. The absorbance was transferred to a PC 486 computer. The IC50 values were determined by a computer program (EZ-ED50) that fit all of the data to the following four-parameterlogistic equation: […]

[4] = test system: HT29 human colon carcinoma cell line; test: Growth inhibition (MTT), HT29 human colon carcinoma cell line; assay type: cell-based; details: 6 days incubation
Description: as §1, §2, §3, §4

DNA = test: Ethidium bromide displacement assay, DNA binding and AT/GC selectivity; details: for Ratio (AT/GC): FI50 poly(dA.dT) / FI50 poly(dG.dC)
Description: (§5) Stock Solutions. A 10X Binding solution was prepared by combining 0.93 ml of an aqueous NaCl solution (5M), 2.0 ml of an aqueous Tris HCl (500 mM) solution, 0.1 ml of an EDTA solution (500 mM) and 46.97 ml of water. The resultant solution was 93 mM in NaCl, 20 mM in Tris HCl, and 1 mM in EDTA. Stock DNA solution were prepared as follows: Poly (dG.dC)-(dG.dC) (ε254=8.4/mM; 27-7910-02), poly (dA.dT)-(dA.dT) (ε262=6.6/mM; 27-7870-02), and lambda DNA (δ260-7.0/mM; 27-4111-01) were purchased from Pharmacia. Solutions were prepared by resuspending either poly (dG.dC)-(dG.dC) or poly (dA.dT)-(dA.dT)in 1 ml of 10X DNA Binding Solution. Lambda DNA is already in solution as purchased.
(§6) Determination of concentration of the stock DNA solutions. Poly (dG.dC) - (dG.dC), poly (dA.dt) - (dA.dt) and lambda DNA concentrations were determined as follows: 980 μl of 10X DNA Binding Solution was pipetted into a 1 ml cuvette. A blank was run on the UV spectrophotometer. 20 μl of the DNA stock of unknown concentration was then added into the cuvette. The sample was then scanned between 210 nm to 500 nm and the absorbance recorded at 254 nm for poly (dG.dC)-(dG.dC), at 262 nm for poly (dA.dT)-(dA.dT) and at 260 nm for lambda DNA. The solution was transferred to a clean tube. This procedure was followed for three different solutions with the absorbance taken as the average of the three. The concentration of poly (dG.dC)-(dG.dC) stock was calculated to be A254 /8.4×1000 (in μM). The concentration of poly (dA.dT) - (dA.dT) stock was calculated to be A262 /6.6×1000 (in μM). The concentration of lambda DNA stock was calculated to be A260 /7.0×1000 (in μM).
Ethidium Bromide Displacement Assay. The binding of the bis-naphthalimides to DNA and to synthetic polynucleotide duplexes was determined by an ethidium bromide displacement assay that measures the reduction of fluorescence when ethidium bromide is displaced from DNA (Baguley, 1981). The fluorescence intensity of a 3 ml solution containing 9.3 mM NaCl, 2 mM Tris-HCI (pH 7.0), 100 μM EDTA, 1 μM DNA (in nucleotides) and 1.26 μM ethidium bromide in a quartz cuvette was measured at the excitation (546 nm) and emission (600 nm) wavelengths on a Shimadzu RF5000U spectrofluorometer. Graded concentrations of agent were then added and the fluorescence intensity was measured. The concentration of compound required to reduce the fluorescence intensity by 50% of that of control (FI50) was determined. Therefore, the lower the FI50 the stronger the binding affinity a particular compound has for DNA. […]

[5] = biological target: poly-(dA.dT)-poly-(dA.dT); test: Ethidium bromide displacement assay, poly(dA.dT)-poly(dA.dT); assay type: binding; details: 50% reduction of ethidium bromide fluorescence, pH 7.0, read-out: FI50 (the source's name)
Description: as §5
as §6, with “A blank was run on the UV spectrophotometer. 20 μl of the DNA stock of unknown concentration was then added into the cuvette.” left out, “The solution was transferred to a clean tube.” left out, “The concentration of lambda DNA stock was calculated to be A260 /7.0×1000 (in μM).” left out

[6] = biological target: poly-(dG.dC)-poly-(dG.dC); test: Ethidium bromide displacement assay, poly(dG.dC)-poly(dG.dC); assay type: binding; details: 50% reduction of ethidium bromide fluorescence, pH 7.0, read-out: FI50 (the source's name)
Description: as §5
as §6, with “A blank was run on the UV spectrophotometer. 20 μl of the DNA stock of unknown concentration was then added into the cuvette.” left out, “The solution was transferred to a clean tube.” left out, “The concentration of lambda DNA stock was calculated to be A260 /7.0×1000 (in μM).” left out

Lambda DNA = test: Ethidium bromide displacement assay, Lambda DNA; assay type: binding; details: 50% reduction of ethidium bromide fluorescence, pH 7.0, read-out: FI50 (the source's name)
Description: as §5
as §6, with “A blank was run on the UV spectrophotometer. 20 μl of the DNA stock of unknown concentration was then added into the cuvette.” left out, “The solution was transferred to a clean tube.” left out, “The concentration of lambda DNA stock was calculated to be A260 /7.0×1000 (in μM).” left out

In the case of `COc1cc(NS(C)(=O)=O)ccc1Nc1c2ccccc2nc2ccccc12` [amsacrine], the clinical anti-tumor activity (human cancers) is listed as “exhibit clinical anti-tumor activity”.

For `COc1cccc2c1C(=O)c1c(O)c3c(c(O)c1C2=O)C[C@@](O)(C(C)=O)C[C@@H]3O[C@H]1C[C@H](N)[C@H](O)[C@H](C)O1` [daunorubicin], the cardiomyopathy ([1]; human, in vivo) is listed as “limited by an unusual cardiomyopathy”.

For `CN(C)CCN1C(=O)c2cccc3cc(N)cc(c23)C1=O` [amonafide], the “intercalator-stabilized-topoisomerase II-DNA cleavable complex formation” value (topoisomerase II) is listed as “result in intercalator-stabilized-topoisomerase II-DNA cleavable complex formation” and the “topoisomerase II inhibition” value (topoisomerase II) is listed as “inhibit topoisomerase II”.

For `O=C1c2c(O)ccc(O)c2C(=O)c2c(NCCNCCO)ccc(NCCNCCO)c21` [mitoxantrone], the clinical anti-tumor activity (human cancers) is given as “exhibit clinical anti-tumor activity”.

With `O=P1(N(CCCl)CCCl)NCCCO1` (centres unmarked) [Cytoxan] the “Wt. Ch. (Day 7)” value (B16 melanoma; 300 mg/kg, q.d. × 1, i.p.) was -6.6%.

For `O=C1c2cccc3cc([N+](=O)[O-])cc(c23)C(=O)N1CCNCCNCCN1C(=O)c2cccc3cc([N+](=O)[O-])cc(c23)C1=O` [Compound 23, 2,2'[1,2-ethanediylbis[imino(2,1-ethanediyl)]]-bis[5-nitro-1H-benz[de]isoquinoline-1,3-(2H)-dione] monomethanesulfonate], the pIC50 [2] was 8.86, the pIC50 (B16 melanoma cell line) was 7.89 and the “Wt. Ch. (Day 7)” value (B16 melanoma; 2.5 mg/kg, q.d. × 5, i.p.) was 0.95%. It also gave a pIC50 [3] of 8.22 and a pIC50 [4] of 9.28.

For `O=C1c2cccc3cc([N+](=O)[O-])cc(c23)C(=O)N1CCNCCOCCN1C(=O)c2cccc3cc([N+](=O)[O-])cc(c23)C1=O` [Compound 5, 5-[2-(3-Nitronaphthalene-1,8-dicarboximido)ethylamino]-1-(3-nitronaphthalene-1,8-dicarboximido)-3-oxapentane], the “Ratio (AT/GC)” value (DNA) was 73.5, the pIC50 [5] was 5.28 and the pIC50 [6] was 7.15. For the same compound, the pIC50 (Lambda DNA) was 6.62, the pIC50 [2] was 9.00 and the pIC50 (B16 melanoma cell line; Mus musculus, B16, 72 h) was 7.70. For the same compound, the pIC50 ([4]; Homo sapiens, HT-29, 144 h) was 8.52.

In the case of `COc1cccc2c1C(=O)c1c(O)c3c(c(O)c1C2=O)C[C@@](O)(C(=O)CO)C[C@@H]3O[C@H]1C[C@H](N)[C@H](O)[C@H](C)O1` [doxorubicin], the cardiomyopathy ([1]; Calabresi and Chabner, 1990) is listed as “limited by an unusual cardiomyopathy”.

In the case of `O=C1c2cccc3cc([N+](=O)[O-])cc(c23)C(=O)N1CCOCCOCCN1C(=O)c2cccc3cc([N+](=O)[O-])cc(c23)C1=O` [Compound 19, 5-[2-(3-Nitronaphthalene-1,8-dicarboximido)ethoxy]-1-(3-nitronaphthalene-1,8-dicarboximido)-3-oxapentane], the “DNA binding (in words)” value (DNA) was “did not bind to DNA”, the “Ratio (AT/GC)” value (DNA) was 1.7 and the “in vitro anticancer activity against B16 melanoma (in words)” value (B16 melanoma cell line; B16 melanoma in vitro) was “potent anticancer activity against this melanoma type”.

With `O=C1c2cccc3cc([N+](=O)[O-])cc(c23)C(=O)N1CCNCCOCCN1C(=O)c2cccc3cc([N+](=O)[O-])cc(c23)C1=O` [Compound 6] the “Displacement of ethidium bromide / decrease in fluorescence intensity” value (DNA; FIG. 1, graded concentrations) was “dose-dependent decrease in fluorescence intensity”, the pIC50 [2] was 8.59 and the pIC50 (B16 melanoma cell line) was 7.96. For the same compound, the “Wt. Ch. (Day 7)” value (B16 melanoma; 15 mg/kg, q.d. × 5, i.p.) was -7.4%, the “activity against B16 melanoma compared with DMP840” value (B16 melanoma; comparator DMP840) was “more effective against B16 melanoma” and the “activity compared with DMP840, compounds 22 and 23, and cytoxan” value (B16 melanoma; comparators DMP840, 22, 23, cytoxan) was “more active”. The pIC50 [3] was 7.46 and the pIC50 [4] was 8.52.

For `O=C1c2c(O)cccc2-c2nn(CCNCCO)c3ccc(NCCNCCO)c1c23` [DuP 941], the clinical anti-tumor activity (human cancers) is listed as “exhibit clinical anti-tumor activity”.

For `O=C1c2cccc3cc([N+](=O)[O-])cc(c23)C(=O)N1CCNCCNCCN1C(=O)c2cccc3cc([N+](=O)[O-])cc(c23)C1=O` [Compound 22, 2,2'[1,2-ethanediylbis[imino(2,1-ethanediyl)]]-bis[5-nitro-1H-benz[de]isoquinoline-1,3-(2H)-dione] dimethanesulfonate], the pIC50 [5] was 6.10, the pIC50 [6] was 7.32 and the pIC50 (Lambda DNA) was 7.28. The pIC50 [2] was 9.28, the pIC50 (B16 melanoma cell line) was 8.37 and the “Wt. Ch. (Day 7)” value (B16 melanoma; 2.5 mg/kg, q.d. × 5, i.p.) was -0.17%. It also gave a pIC50 ([4]; Homo sapiens, HT-29, 144 h) of 9.32.
